# Read-outs that look alike come from different tables or passages of the source.
# Assays:
# CYP17A1 17α-hydroxylase = target: T1, CYP17A1 17α-hydroxylase (Homo sapiens, UniProt P05093); test: CYP17A1 17α-hydroxylase activity assay, microsomes of transfected COS-1 cells; type: biochemical; details: cell-free
# T1 construct: expressed in transfected cells; host or cells: COS-1 cells, transient transfection, microsomal fraction
# T1 sequence (P05093 1-508): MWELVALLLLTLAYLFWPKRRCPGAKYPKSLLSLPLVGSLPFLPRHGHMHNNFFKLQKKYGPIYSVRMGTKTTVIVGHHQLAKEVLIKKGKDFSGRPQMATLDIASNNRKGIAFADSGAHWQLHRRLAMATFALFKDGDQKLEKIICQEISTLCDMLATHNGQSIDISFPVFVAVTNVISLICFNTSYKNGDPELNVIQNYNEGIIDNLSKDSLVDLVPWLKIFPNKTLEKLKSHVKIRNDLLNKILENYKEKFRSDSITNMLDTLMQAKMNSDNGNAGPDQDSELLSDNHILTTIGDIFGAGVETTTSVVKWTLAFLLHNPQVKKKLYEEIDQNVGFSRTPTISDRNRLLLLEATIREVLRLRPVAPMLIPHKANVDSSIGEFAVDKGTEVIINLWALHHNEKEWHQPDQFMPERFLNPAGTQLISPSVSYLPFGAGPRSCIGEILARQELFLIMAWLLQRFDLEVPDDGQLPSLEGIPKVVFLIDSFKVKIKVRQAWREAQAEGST
# Method: (§1) Microsomes were prepared from COS-1 cells transiently transfected with plasmids for either CYP17A1 and POR for CYP17A1-hydroxylase assay (human CYP17A1 was available in our own plasmid collection after cloning into pcDNA3, POR was ordered from Genescript, Piscataway, USA, clone ID OHu25584C), CYP17A1, POR and cytochrome b5 for CYP17A1 17,20-lyase assay (cytochrome b5 was from Genescript, clone ID OHu09495D), POR and CYP21A2 (Genescript, CYP21A2 clone ID OHu18602D), or 3β-HSD2 (Genescript, clone ID OHu14034D). Transfection was performed using PEI and equal amounts of required plasmids with a total DNA amount of 8 µg per transfection of 3,000,000 cells. After overnight incubation, cells were washed with prewarmed PBS before adding ice-cold PBS. Cells were collected and centrifuged at 600 × g for 4 min at 4 °C, washed with ice cold PBS and centrifuged again. The pellet was resuspended in a resuspension buffer (20 mM Tris, pH 7.5, 50 mM KCl, 2 mM MgCl2, 0.25 M sucrose). Cells were disrupted with 30 S by a glass potter (2 cm^3) as described above. The homogenate was centrifuged for 20 min at 12,000 × g and 4 °C. Microsomes were pelleted by ultracentrifugation at 100,000 × g for 1 h at 4 °C. The pellet was resuspended in reaction buffer and the protein concentration determined using the Pierce Protein BCA kit as described above.
# (§2) Microsomal protein (250 µg/mL) was preincubated with 1 mM NADPH and the compound of interest in reaction buffer for 10 min. The reaction was started by adding progesterone spiked with a radioactive tracer (final activity 0.025 mCi) to a final concentration of 500 nM. After 10 min of incubation at 37 °C the reaction was stopped by adding enzyme substrate and product at a final concentration of 1 mM in methanol, followed by shock-freezing in liquid nitrogen. Steroids were separated by thin layer chromatography on SIL G-25 UV254 TLC plates (Macherey-Nagel, Düren, Germany) using chloroform and ethyl acetate (1:4; v:v). Bands were excised and radiolabeled steroids analyzed by scintillation counting using […] Plus cocktail (Zinsser Analytic, Frankfurt am Main, Germany) and a β-counter (Packard, Connecticut, USA). Relative conversion was calculated based on total counts.
# CYP17A1 17,20-lyase = target: T2, CYP17A1 17,20-lyase (Homo sapiens, UniProt P05093); test: CYP17A1 17,20-lyase activity assay, microsomes of transfected COS-1 cells; type: biochemical; details: for IC50: cell-free, 17α-hydroxypregnenolone 500 nM, 1 h
# T2 construct: expressed in transfected cells; host or cells: COS-1 cells, transient transfection, microsomal fraction
# T2 sequence (P05093 1-508): T1 sequence (P05093 1-508)
# Method: as §1
# Microsomes, 250 µg/mL, expressing CYP17A1, POR and cytochrome b5 were incubated in reaction buffer for 10 min with 1 mM NADPH and the azole antifungals. The reaction was started by adding 500 nM 17α-hydroxypregnenolone in a total reaction volume of 50 µL. After 1 h of incubation at 37 °C, the reaction was stopped adding 50 µL methanol. Samples were evaporated to dryness, reconstituted in 6 µL methanol, diluted 1:25 in water and the DHEA concentration was quantified using an ELISA kit (DEH3344, Demeditec, Kiel, Germany). Absorbance was measured using a BioTek Citation5 imaging reader.
# CYP21A2 = target: T3, CYP21A2 (Homo sapiens, UniProt P08686); test: CYP21A2 activity assay, microsomes of transfected COS-1 cells; type: biochemical; details: cell-free, progesterone 500 nM, 10 min
# T3 construct: host or cells: COS-1 cells, transient transfection, microsomal fraction
# T3 sequence (P08686 1-495): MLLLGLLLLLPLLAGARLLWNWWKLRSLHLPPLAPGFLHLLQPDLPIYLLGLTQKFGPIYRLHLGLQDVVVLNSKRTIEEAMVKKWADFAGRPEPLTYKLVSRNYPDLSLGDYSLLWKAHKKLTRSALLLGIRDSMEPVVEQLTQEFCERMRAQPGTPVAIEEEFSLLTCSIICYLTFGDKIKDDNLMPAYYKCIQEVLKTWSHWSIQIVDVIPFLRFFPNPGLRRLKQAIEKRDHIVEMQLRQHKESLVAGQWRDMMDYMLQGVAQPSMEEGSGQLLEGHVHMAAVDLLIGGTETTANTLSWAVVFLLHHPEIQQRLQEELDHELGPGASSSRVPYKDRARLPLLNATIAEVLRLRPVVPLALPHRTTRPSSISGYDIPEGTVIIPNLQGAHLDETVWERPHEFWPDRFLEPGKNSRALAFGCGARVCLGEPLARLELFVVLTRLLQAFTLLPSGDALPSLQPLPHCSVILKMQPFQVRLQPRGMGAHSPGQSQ
# Method: as §1, §2
# H295R cells = test: Steroidogenesis assay in forskolin-stimulated H295R cells, UHPLC-MS/MS; type: cell-based, human; details: forskolin-stimulated, 48 h, in words
# Method: Briefly, 200,000 cells/mL between passages 5 and 10 were seeded in a 24-well plate. After 24 h, the medium was replaced by fresh medium containing reference or test compounds. […] As a time zero control, complete medium was incubated without cells. After 48 h of incubation, the cell culture supernatant was collected and stored at −20 °C until steroid quantification was performed by ultra-high liquid chromatography tandem mass spectrometry (UHPLC-MS/MS). All experiments were performed three times independently in technical duplicates.
# Using water, the sample volume was adapted to 1 mL. Samples were extracted using Oasis HLB 3 cc SPE cartridge (30 mg, 30 μm particle size, Waters, Massachusetts, USA). Columns were preconditioned with 1 mL ethyl acetate and water prior to application of samples. After sample loading, columns were washed three times with 1 mL methanol (10% v/v) and water before samples were eluted applying 0.75 mL ethyl acetate twice. Eluates were evaporated to dryness and reconstituted in 50 µL methanol. Samples were applied to a reverse phase column (Waters Acquity UPLC BEH C18, 1.7 μm, 2.1 mm × 150 mm). […] Applied mobile phases consisted of water, acetonitrile and formic acid (95/5/0.1; v/v/v and 5/95/0.1; v/v/v). For data analysis, Hunter software version B.09.00 (Agilent Technologies) was used. Lower limit of detection (LOD), lower limit of quantification (LLOQ), and upper limit of quantification (ULOQ) are shown in Table 1.
# 11β-HSD2 = system: 11β-HSD2; design: method as in Beck et al., 2017, Beck et al., 2020a; details: in words, ref Beck et al., 2017, Beck et al., 2020a; cited from earlier work
# [1] = design: method as in earlier work; details: ref Zhang et al., 2018, Märtson et al., 2019, Vena et al., 2020, Risum et al., 2021, cited from earlier work
# CYP11A1 = target: T4, CYP11A1 (Homo sapiens, UniProt P05108); test: CYP11A1 assay based on mitochondrial fraction of V79-4 cells; type: biochemical; details: 10 µM, 20S-hydroxycholesterol 2 µM, 4 h, qualitative, assay of low sensitivity
# T4 construct: host or cells: V79-4 cells (Chinese hamster), transient transfection, mitochondrial fraction
# T4 sequence (P05108 40-521): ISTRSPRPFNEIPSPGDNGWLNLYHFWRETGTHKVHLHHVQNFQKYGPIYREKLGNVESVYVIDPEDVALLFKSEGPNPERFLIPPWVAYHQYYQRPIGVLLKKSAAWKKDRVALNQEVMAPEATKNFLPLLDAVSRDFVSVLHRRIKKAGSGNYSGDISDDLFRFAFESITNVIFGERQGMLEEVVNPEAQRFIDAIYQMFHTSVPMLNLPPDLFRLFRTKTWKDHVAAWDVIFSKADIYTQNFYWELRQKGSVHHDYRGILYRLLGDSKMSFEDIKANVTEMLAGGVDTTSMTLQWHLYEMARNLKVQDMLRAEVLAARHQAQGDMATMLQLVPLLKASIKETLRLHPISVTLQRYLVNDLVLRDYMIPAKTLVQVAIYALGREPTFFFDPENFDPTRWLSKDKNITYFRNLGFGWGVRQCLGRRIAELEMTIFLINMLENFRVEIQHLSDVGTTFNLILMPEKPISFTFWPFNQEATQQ
# Method: Mitochondria were prepared as described previously with modifications ([Frezza et al., 2007]). Briefly, V79-4 cells (3,000,000) were seeded 4 h prior to transfection with 4 µg of expression plasmid for CYP11A1 and adrenodoxin (GeneScript Piscataway, USA, clone IDs OHu18602D and OHu55929D) using polyethylemine (PEI) in a PEI/DNA ratio of 3:1 (w/w). At 4 h post-transfection, medium was changed and cells were incubated overnight. Cells were collected in ice cold phosphate buffered saline (PBS) and centrifuged at 600 × g for 10 min at 4 °C. The pellet was resuspended in ice cold isolation buffer (10 mM Tris/MOPS, pH 7.4, 1 mM EGTA/Tris, pH 7.4, 200 mM sucrose in water) and transferred to a glass potter, followed by 35 S using a 2 cm^3 glass Teflon pestle. The homogenate was centrifuged for 10 min at 600 × g and 4 °C. The supernatant was collected and centrifuged for 10 min at 7000 × g at 4 °C. The pellet was washed and resuspended in 200 μL ice cold isolation buffer. After centrifugation, the pellet containing the mitochondrial fraction was resuspended in 30 μL reaction buffer (25 mM HEPES pH 7.4, 0.1 mM DTT, 0.1 mM EDTA, 4 mM MgCl2) and the protein content was determined by the BCA assay according to the manufacturer (Pierce BCA protein assay kit, Thermo Scientific, Rockford, USA). Bovine serum albumin provided with the kit was used as reference protein and absorbance was measured using a BioTek Cytation5 Imaging Reader (Agilent BioTek).
# For the CYP11A1 activity assay, 500 µg/mL of freshly prepared mitochondrial fraction were pre-incubated on ice with reaction buffer, 1 mM NADPH and either vehicle (0.1% DMSO), 10 µM of the positive control ketoconazole ([Mast et al., 2013]) or the triazole antifungals for 10 min. The reaction was started by adding the substrate 20S-hydroxycholesterol at a final concentration of 2 µM in a reaction volume of 50 µL. After 4 h of incubation at 37 °C, the reaction was stopped by adding 50 µL methanol and shock-freezing in liquid nitrogen. Samples were stored at −80 °C until sample preparation for pregnenolone detection using an ELISA kit (Alpco, Salem, USA). Sample preparation included evaporation of samples to dryness, reconstitution in 6 µL methanol and 1:25 (v:v) dilution in water. The ELISA was performed according to the manufacturer and absorbance was measured using a BioTek Citation5 imaging reader.
# [2] = progesterone 500 nM, 10 min, read-out: IC50 CYP17A1 17α-hydroxylase mean
inhibition of CYP17A1 17α-hydroxylase (CYP17A1 17α-hydroxylase; in words),"lower inhibitory potency against 17,20-lyase than posaconazole (CYP17A1 17,20-lyase; relative to posaconazole) [times]",inhibition of CYP11A1 activity (CYP11A1),SMILES,IC50 (CYP17A1 17α-hydroxylase; [2]) [µM],"IC50 (CYP17A1 17,20-lyase) [µM]",IC50 (CYP21A2) [µM],effect on the steroid profile (H295R cells),inhibition of 11β-HSD2 (11β-HSD2),serum trough concentration ([1]; molar value in brackets) [µM],serum trough concentration [1] [µg/mL],IC50 (CYP17A1 17α-hydroxylase; read-out: IC50 against 17α-hydroxylase) [µM]
,,,OC(Cn1cncn1)(Cn1cncn1)c1ccc(F)cc1F [fluconazole],> 10,> 10,> 10,only minor effects on the steroid profile,inactive,~3,11,
very weakly,10,,"CC(O)C(C)n1ncn(-c2ccc(N3CCN(c4ccc(OCC5COC(Cn6cncn6)(c6ccc(Cl)cc6Cl)O5)cc4)CC3)cc2)c1=O (centres unmarked) [OH-itraconazole, Hydroxyitraconazole]",7.16,2.48,> 10,,,,,
,,,C[C@@H](c1ncncc1F)[C@](O)(Cn1cncn1)c1ccc(F)cc1F [voriconazole],> 10,> 10,> 10,only minor effects on the steroid profile,inactive,,,
,,weak inhibitory effect,CC(=O)N1CCN(c2ccc(OCC3COC(Cn4ccnc4)(c4ccc(Cl)cc4Cl)O3)cc2)CC1 (centres unmarked) [ketoconazole],,,,,,,,
,,,CCCN(CCOc1c(Cl)cc(Cl)cc1Cl)C(=O)n1ccnc1 [prochloraz],0.09,0.04,0.21,significant accumulation of progesterone,,,,0.0945
